Assay results reported in PMC12573178, “Substrate-Guided Development of HDAC11-Selective Inhibitors Featuring α‑Amino Amide Zinc-Binding Groups” (ACS Omega, 2025).

System: HEK293 cells
Assay: Metabolic labeling with Alk-14, CuAAC with Cy3-azide, in-gel fluorescence (global fatty-acylation level)
Type: cell-based
Conditions: Alk-14 25 μM, 31 20 μM, 24 h

In the case of `CCCCCCCCCCCCSC[C@@H](N)C(=O)NCCCC[C@@H]1NC(=O)[C@H](CCC(N)=O)NC1=O` [Compound 31], the “In-gel fluorescence signal (protein fatty acylation)” value is reported as “moderately increased the fluorescence signal”.
